Reference: patent US6413764B1, “Human metabotropic glutamate receptors, nucleic acids encoding same and uses thereof” (Merck & Co., Inc., priority 1993, dated 2002)
Values belong to the compound of their own block, whether it stands above or below them.

Columns and labels:
[1] = biological target: T1, human mGluR5a receptor (Homo sapiens, UniProt P41594); experiment: Two-electrode voltage clamp of Xenopus oocytes injected with mGluR5a3 transcripts; format: cell-based; details: for transmembrane currents after application of the compound: oocytes injected with mGluR5a3 transcripts, 0.001-0.1 μM quisqualate, 0.1-10 μM glutamate, 0.1-300 μM 1S,3R-ACPD, clamped at −80 to −100 mV; for dose-response of current magnitude: varying amounts of each compound, mGluR5a3 transcripts
Protocol: Xenopus oocytes were injected with in vitro transcripts prepared from constructs containing DNA encoding human metabotropic receptors. Electrophysiological measurements of the oocyte transmembrane currents were made using the two-electrode voltage clamp technique (see e.g., Stuhmer (1992) Meth. Enzymol. 207:319-339).
Recombinant capped transcripts of metabotropic receptor cDNAs contained in construct mGluR5a3 were synthesized from linearized plasmids using the Megascript Kit (Cat. #1334, Ambion, Inc., Austin, Tex.). The mass of each synthesized transcript was determined by UV absorbance and the integrity of each transcript was determined by electrophoresis through an agarose gel.
Xenopus oocytes were injected with 10-50 ng of metabotropic receptor transcripts per oocyte. The preparation and injection of oocytes were carried out as described by Dascal [(1987) Crit; Rev. Biochem. 22:317-387]. Two-to-six days following mRNA injection, the oocytes were examined using the two-electrode voltage clamp technique. The cells were bathed in Ringer's solution (115 mM NaCl, 2.5 mM KCl, 1.8 mM CaCl2, 10 mM HEPES, pH 7.3), and the membrane potential was clamped at −80 to −100 mV. Drugs were applied by pipetting 60 μl aliquots of drug-containing solution directly into the bath. Data were sampled at 2-5 Hz with a Labmaster data acquisition board in PC-386 using AXOTAPE version 1.2 (Axon Instruments, Foster City, Calif.) software. Data were exported to a laser printer or plotted using Sigmaplot version 5.0.
Metabotropic receptor-modulating compounds, i.e., 0.001-0.1 μM quisqualate, 0.1-10 μM glutamate and 0.1-300 μM 1S,3R-ACPD (1-amino-cyclopentyl-1,3-dicarboxylic acid), were applied to the bath and the transmembrane currents were recorded.

[2] = biological target: T1, human mGluR5a receptor; experiment: Fluorescence imaging assay (fura-2) in HEK 293 cells transiently transfected with mGluR5a3; format: cell-based; design: expressed in transfected cells; host or cells: HEK 293 cells, transient CaPO4 transfection; details: 100 μM; HEK 293 transiently transfected with mGluR5a3
Protocol: (§1) HEK 293 cells that had been transiently transfected with mGluR5a3 and untransfected HEK 293 cells (control) were analyzed by digital video imaging in order to visualize metabotropic receptor-mediated changes in intracellular Ca^++ concentration. Transfectants (4×10^5 cells per 35-mm culture dish with glass-insert bottom) were loaded with fura-2 by exposing the cells to 1 μM fura-2 (acetoxymethyl ester) for 25 min at room temperature in the dark. The cells were then washed three times with DMEM and four times with Ringer's (160 mM NaCl, 5 mM KCl, 2 mM CaCl2, 1 mM MgCl2, 11 mM glucose, 5 mM HEPES, pH 7.3) solution.
(§2) The transfectants and untransfected cells were then placed on the stage of an Axiovert 100 TV inverted microscope (Zeiss, Oberkochren, Germany) equipped with a 150 W xenon lamp as the UV light source. […]
(§3) The uncalibrated fura-2 ratios were used to generate pseudocolor images with purple corresponding to resting intracellular Ca^++ concentration (˜100 nM) and red to high intracellular Ca^++ concentration (˜1 μM). For quantitative analysis, the average ratio value in a 12-by-12 pixel region over each cell was calculated by the software for each ratio image in an experiment and imported into a spreadsheet for further analysis and graphing.

[3] = tested on: untransfected HEK 293 cells; experiment: Fluorescence imaging assay (fura-2), untransfected control cells; format: cell-based, human; details: 100 μM, on average
Protocol: as §1, §2, §3

T1 sequence (P41594 21-1180 isoform P41594-2 limits assumed): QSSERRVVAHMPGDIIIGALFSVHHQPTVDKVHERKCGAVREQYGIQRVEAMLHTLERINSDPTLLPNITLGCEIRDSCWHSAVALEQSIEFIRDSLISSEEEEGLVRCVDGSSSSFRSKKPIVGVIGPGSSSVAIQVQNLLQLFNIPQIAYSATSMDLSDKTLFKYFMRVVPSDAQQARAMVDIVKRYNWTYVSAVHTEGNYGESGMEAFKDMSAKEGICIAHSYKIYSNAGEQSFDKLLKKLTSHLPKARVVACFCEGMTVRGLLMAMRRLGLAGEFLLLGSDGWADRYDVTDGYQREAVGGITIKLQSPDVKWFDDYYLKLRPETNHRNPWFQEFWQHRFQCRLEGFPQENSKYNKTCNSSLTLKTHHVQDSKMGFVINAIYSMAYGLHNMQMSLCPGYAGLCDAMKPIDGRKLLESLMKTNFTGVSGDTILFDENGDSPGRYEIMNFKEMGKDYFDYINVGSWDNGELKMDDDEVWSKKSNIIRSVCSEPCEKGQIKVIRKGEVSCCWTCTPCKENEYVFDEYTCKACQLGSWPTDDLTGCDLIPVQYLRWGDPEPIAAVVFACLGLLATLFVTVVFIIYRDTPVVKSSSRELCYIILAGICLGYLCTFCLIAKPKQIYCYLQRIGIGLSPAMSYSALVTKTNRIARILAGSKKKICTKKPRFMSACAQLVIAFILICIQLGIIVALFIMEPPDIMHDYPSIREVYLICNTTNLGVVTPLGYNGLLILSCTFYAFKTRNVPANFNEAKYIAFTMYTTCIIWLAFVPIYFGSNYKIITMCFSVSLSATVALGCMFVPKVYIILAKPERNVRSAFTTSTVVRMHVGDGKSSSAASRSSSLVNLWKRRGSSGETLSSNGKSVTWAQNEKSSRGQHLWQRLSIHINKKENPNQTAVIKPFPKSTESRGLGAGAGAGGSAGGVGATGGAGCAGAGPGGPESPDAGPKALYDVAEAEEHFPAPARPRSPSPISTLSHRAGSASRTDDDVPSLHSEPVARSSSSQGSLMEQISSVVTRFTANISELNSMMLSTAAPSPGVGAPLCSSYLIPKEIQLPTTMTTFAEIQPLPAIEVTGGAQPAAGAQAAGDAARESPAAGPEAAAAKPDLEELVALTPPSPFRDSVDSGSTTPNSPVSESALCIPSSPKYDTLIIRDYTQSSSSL

- transmembrane currents after application of the compound [1]: Significant currents were detected
SMILES: N[C@@H](CCC(=O)O)C(=O)O [glutamate]
- dose-response of current magnitude [1]: current magnitude increased with increasing concentration

SMILES: NC1(C(=O)O)CCC(C(=O)O)C1 (stereo not drawn) [1S,3R-ACPD, 1-amino-cyclopentyl-1,3-dicarboxylic acid]
- transmembrane currents after application of the compound [1]: Significant currents were detected
- dose-response of current magnitude [1]: current magnitude increased with increasing concentration

SMILES: N[C@@H](Cn1oc(=O)[nH]c1=O)C(=O)O [quisqualate]
- transfected cells whose intracellular Ca++ concentration increased [2]: 26.7±22.3%
- intracellular Ca++ concentration change [3]: did not change
- transmembrane currents after application of the compound [1]: Significant currents were detected
- dose-response of current magnitude [1]: current magnitude increased with increasing concentration
